Literature values as cited in patent US7569547B2, “Inhibiting furin with polybasic peptides” (Board of Supervisors of Louisiana State University and …, priority 2001, dated 2009).
No end group written: not given here.

Assays:
furin [1] = target: T1, furin (Homo sapiens, UniProt P09958); settings: Lu et al. 1993; cited from earlier work
PC7 = target: T2, PC7 (Homo sapiens, UniProt Q16549); settings: Zhong et al. 1999; read-out: Ki against PC7; cited from earlier work
T2 sequence (Q16549 142-785): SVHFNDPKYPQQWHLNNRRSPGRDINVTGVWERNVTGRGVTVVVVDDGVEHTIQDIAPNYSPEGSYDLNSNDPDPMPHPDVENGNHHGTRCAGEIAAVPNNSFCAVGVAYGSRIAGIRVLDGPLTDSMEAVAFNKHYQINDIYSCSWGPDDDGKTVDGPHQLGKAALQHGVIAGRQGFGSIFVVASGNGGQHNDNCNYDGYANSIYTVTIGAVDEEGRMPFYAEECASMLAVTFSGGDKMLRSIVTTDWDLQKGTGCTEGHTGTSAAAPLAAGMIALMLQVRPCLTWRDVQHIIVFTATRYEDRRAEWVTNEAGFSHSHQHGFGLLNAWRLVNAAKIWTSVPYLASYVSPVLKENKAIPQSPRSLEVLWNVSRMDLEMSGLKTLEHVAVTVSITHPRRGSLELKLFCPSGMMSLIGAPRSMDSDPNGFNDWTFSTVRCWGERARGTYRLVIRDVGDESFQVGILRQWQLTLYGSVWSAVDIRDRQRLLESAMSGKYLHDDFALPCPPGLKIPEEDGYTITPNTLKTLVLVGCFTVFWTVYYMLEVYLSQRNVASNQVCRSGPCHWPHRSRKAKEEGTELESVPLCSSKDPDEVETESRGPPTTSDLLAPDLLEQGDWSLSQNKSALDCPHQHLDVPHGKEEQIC

furin [2] = target: T1, furin; settings: literature; read-out: Ki against furin; cited from earlier work

T1 sequence (P09958 108-794): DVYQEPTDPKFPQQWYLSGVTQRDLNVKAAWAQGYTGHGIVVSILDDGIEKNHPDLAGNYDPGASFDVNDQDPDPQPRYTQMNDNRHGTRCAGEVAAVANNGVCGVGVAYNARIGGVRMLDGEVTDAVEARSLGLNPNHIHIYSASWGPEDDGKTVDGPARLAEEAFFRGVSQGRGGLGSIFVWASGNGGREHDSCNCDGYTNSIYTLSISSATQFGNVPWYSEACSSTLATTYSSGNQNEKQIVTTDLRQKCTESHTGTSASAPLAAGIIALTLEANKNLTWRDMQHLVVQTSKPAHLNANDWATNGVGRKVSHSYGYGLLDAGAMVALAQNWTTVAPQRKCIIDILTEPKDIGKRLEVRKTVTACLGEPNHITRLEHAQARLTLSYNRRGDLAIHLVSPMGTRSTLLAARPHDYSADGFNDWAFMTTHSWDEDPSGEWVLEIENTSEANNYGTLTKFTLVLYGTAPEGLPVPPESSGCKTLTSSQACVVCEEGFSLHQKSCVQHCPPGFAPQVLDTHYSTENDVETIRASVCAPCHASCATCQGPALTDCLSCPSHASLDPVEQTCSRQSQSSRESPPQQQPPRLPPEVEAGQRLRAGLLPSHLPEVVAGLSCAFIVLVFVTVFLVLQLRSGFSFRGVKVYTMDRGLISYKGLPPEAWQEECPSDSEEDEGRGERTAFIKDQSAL

Substance | equilibrium constant (furin [1]) | Ki (PC7) | Ki (furin [2])
Arg^15-Lys^17-Arg^18 turkey ovomucoid third domain: third domain of turkey ovomucoid engineered (KPACTLE^19→KPRCKRE^19) to increase specificity towards furin (not fully specified; ends and bridges not checked) | 1.1e+07 M⁻¹ |  | 
EQRLLKRAKR |  | 6 nM | 80 nM
QQVAKRRTKR |  | ~500 nM | 
